Values quoted from earlier work as cited in US20090197941A1, “Pharmaceutical Compositons for the Treatment of Chronic Obstructive Pulmonary Disease” (priority 2005, published 2009).

Columns and labels:
U87 human glioma cells = details: increasing concentrations of CBD, Boyden chamber, read-out: IC50 of tumour cell migration
CB2 receptors = CB2 receptors (Homo sapiens, UniProt P34972); details: known in the art
CB1 receptors = CB1 receptors (Homo sapiens, UniProt P21554); details: known in the art
CB1 receptors, sequence (P21554 whole entry): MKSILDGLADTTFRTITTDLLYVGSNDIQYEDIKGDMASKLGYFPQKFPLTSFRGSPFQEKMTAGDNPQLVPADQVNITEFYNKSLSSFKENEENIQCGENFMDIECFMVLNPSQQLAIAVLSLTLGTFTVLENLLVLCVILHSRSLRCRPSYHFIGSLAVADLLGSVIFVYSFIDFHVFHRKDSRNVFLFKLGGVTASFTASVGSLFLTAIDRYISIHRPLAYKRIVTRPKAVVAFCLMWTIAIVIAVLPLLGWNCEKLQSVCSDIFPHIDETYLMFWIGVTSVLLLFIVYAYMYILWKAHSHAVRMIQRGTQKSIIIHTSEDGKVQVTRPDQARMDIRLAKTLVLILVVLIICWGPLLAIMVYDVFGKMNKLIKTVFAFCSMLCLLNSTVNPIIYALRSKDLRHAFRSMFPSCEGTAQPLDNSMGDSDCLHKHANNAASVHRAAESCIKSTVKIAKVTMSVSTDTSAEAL

CB2 receptors, sequence (P34972 whole entry): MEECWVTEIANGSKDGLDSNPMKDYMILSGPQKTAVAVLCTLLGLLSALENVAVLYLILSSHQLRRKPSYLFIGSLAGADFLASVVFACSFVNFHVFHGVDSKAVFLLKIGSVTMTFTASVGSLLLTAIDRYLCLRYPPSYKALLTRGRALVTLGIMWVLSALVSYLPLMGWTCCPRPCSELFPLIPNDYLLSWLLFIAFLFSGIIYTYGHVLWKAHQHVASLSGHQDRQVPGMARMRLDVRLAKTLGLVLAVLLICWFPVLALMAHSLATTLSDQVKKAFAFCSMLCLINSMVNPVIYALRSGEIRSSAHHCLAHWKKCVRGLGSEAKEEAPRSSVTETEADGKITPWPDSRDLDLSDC

Compound: C=C(C)[C@@H]1CCC(C)=C[C@H]1c1c(O)cc(CCCCC)cc1O [CBD, cannabidiol]
- IC50 (U87 human glioma cells): 5.05 ± 1.1 µM
- action at CB2 receptors (CB2 receptors): not to act
- action at CB1 receptors (CB1 receptors): only very weakly
